Non-standard residues stand in square brackets, D forms with d. Residues, ends and D or L forms follow the SMILES beside them. Phe(4-Br) = N[C@@H](Cc1ccc(Br)cc1)C(=O)O; Phe(4-I) = N[C@@H](Cc1ccc(I)cc1)C(=O)O; NMeY = CN[C@@H](Cc1ccc(O)cc1)C(=O)O; Nle = CCCC[C@H](N)C(=O)O; Aib = CC(C)(N)C(=O)O
Columns and labels:
[1] = in vitro
Procedure: Pooled mouse plasma was prepared and stored at −80° C. prior to use. 396 μL mouse plasma was incubated at 37° C. for 5 minutes in 1.5 mL microcentrifuge tubes. 4 μL of 100 μM test or control compound/peptide was added to each tube and incubated for 0.5, 15, 30, 60, 120, or 240 minutes. An aliquot of 40 μL of each reaction was stopped by the addition of 4 volume of cold acetonitrile containing 200 ng/mL of Setmelanotide as an internal standard (IS). The incubation solution was centrifuged at 3500 rpm for 10 minutes to precipitate protein. The supernatant was used for LC/MS/MS analysis. The natural log peak area ratio (compound peak […] area/internal standard peak area) was plotted against time and the gradient of the line determined.

[2] = molecular target: human MC4R (Homo sapiens, UniProt P32245); test: Intracellular cAMP levels in live cells, MC3R selectivity relative to MC4R; type: cell-based; details: cAMP assays in human MC3R and human MC4R stable cell lines
Chain of human MC4R (P32245 whole entry): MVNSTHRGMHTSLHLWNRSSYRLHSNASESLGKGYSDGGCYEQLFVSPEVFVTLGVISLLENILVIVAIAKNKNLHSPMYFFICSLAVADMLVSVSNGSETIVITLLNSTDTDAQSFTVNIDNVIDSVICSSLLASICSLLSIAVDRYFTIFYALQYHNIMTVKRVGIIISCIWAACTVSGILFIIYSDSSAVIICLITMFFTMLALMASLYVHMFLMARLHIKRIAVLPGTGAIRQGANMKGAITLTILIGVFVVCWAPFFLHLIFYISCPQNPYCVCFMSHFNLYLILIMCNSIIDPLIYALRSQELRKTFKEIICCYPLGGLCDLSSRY

Work on `CCCC[C@H](NC(=O)[C@@H](NC(=O)[C@@H](N)Cc1ccc(O)cc1)C(C)C)C(=O)N[C@H](C)C(=O)N[C@@H](Cc1c[nH]cn1)C(=O)N[C@@H](Cc1ccccc1)C(=O)N[C@@H](CCCNC(=N)N)C(=O)N[C@H](Cc1c[nH]c2ccccc12)C(=O)N[C@@H](CC(=O)O)C(=O)N[C@@H](CCCNC(=N)N)C(=O)N[C@@H](Cc1ccccc1)C(=O)NCC(=O)O` [CTX-1103, Tyr-Val-Nle-D-Ala-His-Phe-Arg-D-Trp-Asp-Arg-Phe-Gly] (H-YV[Nle][dA]HFR[dW]DRFG-OH) yielded a half-life at 1 µM ([1]; mouse, plasma) of 1.46 min, a remaining at 5 min, 1 µM ([1]; mouse, plasma) of 9.3% and a remaining at 0.25 h, 1 µM ([1]; mouse, plasma) of 0.21%. The remaining at 0.5 h, 1 µM ([1]; mouse, plasma) was 0.03%, the remaining at 1 h, 1 µM ([1]; mouse, plasma) was 0.02% and the Mouse Plasma Stability, time point 0 min ([1]; pooled mouse plasma, 37° C.) was 100%. The “MC3R selectivity (relative to MC4R)” value [2] was 229.
`CC(C)[C@H](NC(=O)[C@@H](N)Cc1ccc(O)cc1)C(=O)N[C@@H](CCC(=O)O)C(=O)NCC(=O)N[C@@H](Cc1c[nH]cn1)C(=O)N[C@@H](Cc1ccccc1)C(=O)N[C@@H](CCCNC(=N)N)C(=O)N[C@H](Cc1c[nH]c2ccccc12)C(=O)N[C@@H](CC(=O)O)C(=O)N[C@@H](CCCNC(=N)N)C(=O)N[C@@H](Cc1ccccc1)C(=O)NCC(N)=O` [CTX-1105, Tyr-Val-Glu-Gly-His-Phe-Arg-D-Trp-Asp-Arg-Phe-Gly] (H-YVEGHFR[dW]DRFG-NH2) showed a half-life at 1 µM ([1]; mouse, plasma) of 2.38 min, a remaining at 5 min, 1 µM ([1]; mouse, plasma) of 23.4% and a remaining at 0.25 h, 1 µM ([1]; mouse, plasma) of 1.51%. The remaining at 0.5 h, 1 µM ([1]; mouse, plasma) was 0.3%, the remaining at 1 h, 1 µM ([1]; mouse, plasma) was 0.27% and the remaining at 2 h, 1 µM ([1]; mouse, plasma) was 0.12%. The Mouse Plasma Stability, time point 0 min ([1]; pooled mouse plasma, 37° C.) was 100% and the “MC3R selectivity (relative to MC4R)” value [2] was 500.
With `CCCC[C@H](NC(=O)[C@@H](NC(=O)[C@@H](N)Cc1ccc(O)cc1)C(C)C)C(=O)N[C@H](C)C(=O)N[C@@H](Cc1c[nH]cn1)C(=O)N[C@@H](Cc1ccccc1)C(=O)N[C@@H](CCCNC(=N)N)C(=O)N[C@H](Cc1c[nH]c2ccccc12)C(=O)N[C@@H](CC(=O)O)C(N)=O` [CTX-1108, Tyr-Val-Nle-D-Ala-His-Phe-Arg-D-Trp-Asp] (H-YV[Nle][dA]HFR[dW]D-NH2) the half-life at 1 µM ([1]; mouse, plasma) was 1.32 min, the remaining at 5 min, 1 µM ([1]; mouse, plasma) was 7.21% and the remaining at 0.25 h, 1 µM ([1]; mouse, plasma) was 0.33%. The remaining at 0.5 h, 1 µM ([1]; mouse, plasma) was 0.04%, the remaining at 1 h, 1 µM ([1]; mouse, plasma) was 0.01% and the Mouse Plasma Stability, time point 0 min ([1]; pooled mouse plasma, 37° C.) was 100%. The “MC3R selectivity (relative to MC4R)” value [2] was 79.
With `CCCC[C@H](NC(=O)[C@@H](NC(=O)[C@H](Cc1ccc(O)cc1)NC)C(C)C)C(=O)N[C@H](C)C(=O)N[C@@H](Cc1c[nH]cn1)C(=O)N[C@@H](Cc1ccccc1)C(=O)N[C@@H](CCCNC(=N)N)C(=O)N[C@H](Cc1c[nH]c2ccccc12)C(=O)N[C@@H](CC(=O)O)C(N)=O` [CTX-1141, NMe-Tyr-Val-Nle-D-Ala-His-Phe-Arg-D-Trp-Asp] (H-[NMeY]V[Nle][dA]HFR[dW]D-NH2) the half-life at 1 µM ([1]; mouse, plasma) was > 240 min, the remaining at 5 min, 1 µM ([1]; mouse, plasma) was 106% and the remaining at 0.25 h, 1 µM ([1]; mouse, plasma) was 118%. It also gave a remaining at 0.5 h, 1 µM ([1]; mouse, plasma) of 95%, a remaining at 1 h, 1 µM ([1]; mouse, plasma) of 91.8% and a remaining at 2 h, 1 µM ([1]; mouse, plasma) of 108%. The remaining at 4 h, 1 µM ([1]; mouse, plasma) was 63.9%, the Mouse Plasma Stability, time point 0 min ([1]; pooled mouse plasma, 37° C.) was 100% and the “MC3R selectivity (relative to MC4R)” value [2] was 55.
For `CCCC[C@H](NC(C)=O)C(=O)N[C@H](C)C(=O)N[C@@H](Cc1c[nH]cn1)C(=O)N[C@@H](Cc1ccccc1)C(=O)N[C@@H](CCCNC(=N)N)C(=O)N[C@H](Cc1c[nH]c2ccccc12)C(=O)N[C@@H](CC(=O)O)C(=O)N[C@@H](CCCNC(=N)N)C(=O)N[C@@H](Cc1ccccc1)C(=O)N[C@H](C(=O)O)C(C)C` [CTX-1538, Nle-D-Ala-His-Phe-Arg-D-Trp-Asp-Arg-Phe-Val] (Ac-[Nle][dA]HFR[dW]DRFV-OH), the “MC3R selectivity (relative to MC4R)” value [2] was 1,276.
With `CCCC[C@H](NC(C)=O)C(=O)N[C@H](C)C(=O)N[C@@H](Cc1c[nH]cn1)C(=O)N[C@@H](Cc1ccccc1)C(=O)N[C@@H](CCCNC(=N)N)C(=O)N[C@H](Cc1c[nH]c2ccccc12)C(N)=O` [CTX-1539, Nle-D-Ala-His-Phe-Arg-D-Trp] (Ac-[Nle][dA]HFR[dW]-NH2) the “MC3R selectivity (relative to MC4R)” value [2] was 16.
For `CCCC[C@H](NC(C)=O)C(=O)N[C@H](C)C(=O)N[C@@H](Cc1c[nH]cn1)C(=O)N[C@@H](Cc1ccccc1)C(=O)N[C@@H](CCCNC(=N)N)C(=O)N[C@H](Cc1c[nH]c2ccccc12)C(=O)NCC(N)=O` [CTX-1540, Nle-D-Ala-His-Phe-Arg-D-Trp-Gly] (Ac-[Nle][dA]HFR[dW]G-NH2), the “MC3R selectivity (relative to MC4R)” value [2] was 11.
With `CCCC[C@H](NC(C)=O)C(=O)N[C@H](C)C(=O)N[C@@H](Cc1c[nH]cn1)C(=O)N[C@@H](Cc1ccccc1)C(=O)N[C@@H](CCCNC(=N)N)C(=O)N[C@H](Cc1c[nH]c2ccccc12)C(=O)N[C@@H](Cc1ccccc1)C(N)=O` [CTX-1541, Nle-D-Ala-His-Phe-Arg-D-Trp-Phe] (Ac-[Nle][dA]HFR[dW]F-NH2) the “MC3R selectivity (relative to MC4R)” value [2] was 9.
With `CCCC[C@H](NC(C)=O)C(=O)N[C@H](C)C(=O)N[C@@H](Cc1c[nH]cn1)C(=O)N[C@@H](Cc1ccccc1)C(=O)N[C@@H](CCCNC(=N)N)C(=O)N[C@H](Cc1c[nH]c2ccccc12)C(=O)N[C@H](Cc1ccccc1)C(N)=O` [CTX-1542, Nle-D-Ala-His-Phe-Arg-D-Trp-D-Phe] (Ac-[Nle][dA]HFR[dW][dF]-NH2) the “MC3R selectivity (relative to MC4R)” value [2] was 15.
With `CCCC[C@H](NC(C)=O)C(=O)NC(C)(C)C(=O)N[C@@H](Cc1c[nH]cn1)C(=O)N[C@@H](Cc1ccc(I)cc1)C(=O)N[C@@H](CCCNC(=N)N)C(=O)N[C@H](Cc1c[nH]c2ccccc12)C(=O)NCC(N)=O` [CTX-1545, Nle-Aib-His-Phe(4-I)-Arg-D-Trp-Gly] (Ac-[Nle][Aib]H[Phe(4-I)]R[dW]G-NH2) the “MC3R selectivity (relative to MC4R)” value [2] was 14.
In the case of `CSCC[C@H](NC(=O)[C@@H](NC(=O)[C@@H](N)Cc1ccc(O)cc1)C(C)C)C(=O)NCC(=O)N[C@@H](CCCNC(=N)N)C(=O)N[C@@H](Cc1ccccc1)C(=O)N[C@@H](CCCNC(=N)N)C(=O)N[C@H](Cc1c[nH]c2ccccc12)C(=O)N[C@@H](CC(=O)O)C(=O)N[C@@H](CCCNC(=N)N)C(=O)N[C@@H](Cc1ccccc1)C(=O)NCC(=O)O` [CTX-1548, Tyr-Val-Met-Gly-Arg-Phe-Arg-D-Trp-Asp-Arg-Phe-Gly] (H-YVMGRFR[dW]DRFG-OH), the “MC3R selectivity (relative to MC4R)” value [2] is reported as 267.
For `CCCC[C@H](NC(=O)[C@@H](NC(=O)[C@@H](N)Cc1ccc(O)cc1)C(C)C)C(=O)NCC(=O)N[C@@H](CCCNC(=N)N)C(=O)N[C@@H](Cc1ccccc1)C(=O)N[C@@H](CCCNC(=N)N)C(=O)N[C@H](Cc1c[nH]c2ccccc12)C(=O)N[C@@H](CC(=O)O)C(=O)N[C@@H](CCCNC(=N)N)C(=O)N[C@@H](Cc1ccccc1)C(=O)NCC(=O)O` [CTX-1549, Tyr-Val-Nle-Gly-Arg-Phe-Arg-D-Trp-Asp-Arg-Phe-Gly] (H-YV[Nle]GRFR[dW]DRFG-OH), the “MC3R selectivity (relative to MC4R)” value [2] was 102.
With `CCCC[C@H](NC(=O)[C@@H](NC(=O)[C@@H](N)Cc1ccc(O)cc1)C(C)C)C(=O)N[C@H](C)C(=O)N[C@@H](Cc1c[nH]cn1)C(=O)N[C@@H](Cc1ccc(Br)cc1)C(=O)N[C@@H](CCCNC(=N)N)C(=O)N[C@H](Cc1c[nH]c2ccccc12)C(=O)N[C@@H](CC(=O)O)C(=O)N[C@@H](CCCNC(=N)N)C(=O)N[C@@H](Cc1ccccc1)C(=O)NCC(=O)O` [CTX-2120, Tyr-Val-Nle-D-Ala-His-Phe(4-Br)-Arg-D-Trp-Asp-Arg-Phe-Gly] (H-YV[Nle][dA]H[Phe(4-Br)]R[dW]DRFG-OH) the half-life at 1 µM ([1]; mouse, plasma) was 2.01 min, the remaining at 5 min, 1 µM ([1]; mouse, plasma) was 17.9% and the remaining at 0.25 h, 1 µM ([1]; mouse, plasma) was 0.78%. It also gave a remaining at 0.5 h, 1 µM ([1]; mouse, plasma) of 0.13%, a remaining at 1 h, 1 µM ([1]; mouse, plasma) of 0.09% and a Mouse Plasma Stability, time point 0 min ([1]; pooled mouse plasma, 37° C.) of 100%. The “MC3R selectivity (relative to MC4R)” value [2] was 173.
With `CCCC[C@H](NC(=O)[C@@H](NC(=O)[C@@H](N)Cc1ccc(O)cc1)C(C)C)C(=O)N[C@H](C)C(=O)N[C@@H](Cc1c[nH]cn1)C(=O)N[C@@H](Cc1ccc(I)cc1)C(=O)N[C@@H](CCCNC(=N)N)C(=O)N[C@H](Cc1c[nH]c2ccccc12)C(=O)N[C@@H](CC(=O)O)C(=O)N[C@@H](CCCNC(=N)N)C(=O)N[C@@H](Cc1ccccc1)C(=O)NCC(=O)O` [CTX-2122, Tyr-Val-Nle-D-Ala-His-Phe(4-I)-Arg-D-Trp-Asp-Arg-Phe-Gly] (H-YV[Nle][dA]H[Phe(4-I)]R[dW]DRFG-OH) the “MC3R selectivity (relative to MC4R)” value [2] was 324.
With `CCN(CC)CCNC(=O)c1ccc(N)cc1` [Procainamide, reference compound] the “Mouse Plasma Stability, time point 0 min” value ([1]; mouse, 1 µM) was 100.00, the “Mouse Plasma Stability, time point 5 min” value ([1]; mouse, 1 µM) was 101.53 and the “Mouse Plasma Stability, time point 15 min” value ([1]; mouse, 1 µM) was 109.16. The “Mouse Plasma Stability, time point 30 min” value ([1]; mouse, 1 µM) was 103.05, the “Mouse Plasma Stability, time point 60 min” value ([1]; mouse, 1 µM) was 104.43 and the “Mouse Plasma Stability, time point 120 min” value ([1]; mouse, 120 min, 1 µM) was 110.61. The “Mouse Plasma Stability, time point 240 min” value ([1]; mouse, 240 min, 1 µM) was 108.17.
`CCN(CC)CCOC(=O)c1ccc(N)cc1` [Procaine, reference compound] gave a half-life at 1 µM ([1]; mouse, pooled mouse plasma) of 3.81 min, a Mouse Plasma Stability, time point 0 min ([1]; pooled mouse plasma, 37° C.) of 100% and a Mouse Plasma Stability, time point 5 min ([1]; pooled mouse plasma, 37° C.) of 40.3%. The “Mouse Plasma Stability, time point 15 min” value ([1]; pooled mouse plasma, 37° C., in % (unit assumed)) was 8.80, the Mouse Plasma Stability, time point 30 min ([1]; pooled mouse plasma, 37° C.) was 2.15% and the Mouse Plasma Stability, time point 60 min ([1]; pooled mouse plasma, 37° C.) was 0.44%.

Source: US20240287154A1, “MC3R AGONIST PEPTIDES” (The Regents of the University of Michigan, priority 2021, published 2024)
